# “And” between values parts separate entries of the source, which are not always exact repeats. Identical values can stand only once.
# Tested on: OVCAR-5 complex spheroids, viability
# Experiment: Anticancer human tumor OVCAR-5 cell line growth inhibition;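 also: spheroids exposed to agents for seven days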;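 as to viability, T/C: 100% = DMSO vehicle control wells viability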
# Conditions: for viability, T/C: stronger effect = lower value
# How it was run: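 Complex spheroids of tumor cells with HUVEC and human MSCs, exposed to iadademstat combined with other agents. Each agent tested in half-log steps from near clinical Cmax (else 10 microM top), DMSO ≤0.25%.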
# [1] = curve of first compound, second compound 0.1 µM
# [2] = curve of first compound, second compound 0.316 µM
# [3] = curve of first compound, second compound 1 µM
# [4] = curve of first compound, second compound 3.16 µM
# [5] = curve of first compound, second compound 10 µM
# [6] = second compound 0.1 µM, first compound 0.00316 µM
# [7] = second compound 0.1 µM, first compound 0.01 µM
# [8] = second compound 0.1 µM, first compound 0.0316 µM
# [9] = second compound 0.1 µM, first compound 0.1 µM
# [10] = second compound 0.316 µM, first compound 0.00316 µM
# [11] = second compound 0.316 µM, first compound 0.01 µM
# [12] = second compound 0.316 µM, first compound 0.0316 µM
# [13] = second compound 0.316 µM, first compound 0.1 µM
# [14] = second compound 1 µM, first compound 0.00316 µM
# [15] = second compound 1 µM, first compound 0.01 µM
# [16] = second compound 1 µM, first compound 0.0316 µM
# [17] = second compound 1 µM, first compound 0.1 µM
# [18] = second compound 3.16 µM, first compound 0.00316 µM
# [19] = second compound 3.16 µM, first compound 0.01 µM
# [20] = second compound 3.16 µM, first compound 0.0316 µM
# [21] = second compound 3.16 µM, first compound 0.1 µM
# [22] = second compound 10 µM, first compound 0.00316 µM
# [23] = second compound 10 µM, first compound 0.01 µM
# [24] = second compound 10 µM, first compound 0.0316 µM
# [25] = second compound 10 µM, first compound 0.1 µM
# [26] = second compound 0.1 µM, first compound 0.000316 µM
# [27] = second compound 0.1 µM, first compound 0.001 µM
# [28] = second compound 0.316 µM, first compound 0.000316 µM
# [29] = second compound 0.316 µM, first compound 0.001 µM
# [30] = second compound 1 µM, first compound 0.000316 µM
# [31] = second compound 1 µM, first compound 0.001 µM
# [32] = second compound 3.16 µM, first compound 0.000316 µM
# [33] = second compound 3.16 µM, first compound 0.001 µM
# [34] = second compound 10 µM, first compound 0.000316 µM
# [35] = second compound 10 µM, first compound 0.001 µM
compound,measurement,setting,value
COc1cc(Nc2ncc3c(n2)-c2ccc(Cl)cc2C(c2c(F)cccc2OC)=NC3)ccc1C(=O)O + NC1CCC(NC2CC2c2ccccc2)CC1,IC50,[1],> 1000 nM
same,IC50,[2],> 1000 nM
same,IC50,[3],999 nM
same,IC50,[4],> 1000 nM
same,IC50,[5],> 1000 nM
same,"viability, T/C",[6],103%
same,"viability, T/C",[7],99.1%
same,"viability, T/C",[8],83.5%
same,"viability, T/C",[9],61%
same,"viability, T/C","second compound 0.1 µM, first compound 0.316 µM",64.1%
same,"viability, T/C","second compound 0.1 µM, first compound 1 µM",54.6%
same,"viability, T/C",[10],94.5%
same,"viability, T/C",[11],93.2%
same,"viability, T/C",[12],78.4%
same,"viability, T/C",[13],64%
same,"viability, T/C","second compound 0.316 µM, first compound 0.316 µM",57.3%
same,"viability, T/C","second compound 0.316 µM, first compound 1 µM",56.6%
same,"viability, T/C",[14],87.3%
same,"viability, T/C",[15],90.3%
same,"viability, T/C",[16],80.2%
same,"viability, T/C",[17],62.7%
same,"viability, T/C","second compound 1 µM, first compound 0.316 µM",59.8%
same,"viability, T/C","second compound 1 µM, first compound 1 µM",47.4%
same,"viability, T/C",[18],83.6%
same,"viability, T/C",[19],83.7%
same,"viability, T/C",[20],75.2%
same,"viability, T/C",[21],59.3%
same,"viability, T/C","second compound 3.16 µM, first compound 0.316 µM",60.7%
same,"viability, T/C","second compound 3.16 µM, first compound 1 µM",52.5%
same,"viability, T/C",[22],83.5%
same,"viability, T/C",[23],78.7%
same,"viability, T/C",[24],79.7%
same,"viability, T/C",[25],57.6%
same,"viability, T/C","second compound 10 µM, first compound 0.316 µM",55.8%
same,"viability, T/C","second compound 10 µM, first compound 1 µM",45.5%
Nc1ccn(C2OC(CO)C(O)C2(F)F)c(=O)n1 (stereo not drawn),"viability, T/C",compound 0.000949 µM,27.5% and 26.9%
same,"viability, T/C",compound 0.003 µM,29.6% and 29.3%
same,"viability, T/C",compound 0.00949 µM,29.2% and 28.1%
same,"viability, T/C",compound 0.03 µM,28.8% and 29.1%
same,"viability, T/C",compound 0.0949 µM,30.1% and 28.8%
same,"viability, T/C",compound 0.3 µM,29.1% and 28.3%
same,IC50,curve of compound,< 0.949 nM
NC1CC1c1ccc(-c2cccc(O)c2)cc1 (stereo not drawn),"viability, T/C",compound 10 µM,89.8% [middle of 25 runs]
same,IC50,"compound alone, run of 12/07/2021",> 10000 nM
CC(C)c1c(-c2ccccc2)nc2c(C#N)c[nH]n2c1=O,"viability, T/C",compound 0.0316 µM,117% and 105%
same,"viability, T/C",compound 0.1 µM,108% and 94.7%
same,"viability, T/C",compound 0.316 µM,107% and 104%
same,"viability, T/C",compound 1 µM,107% and 102%
same,"viability, T/C",compound 3.16 µM,117% and 104%
same,"viability, T/C",compound 10 µM,104% and 100%
same,IC50,curve of compound,> 10000 nM
NC1CCC(NC2CC2c2ccccc2)CC1 (stereo not drawn),"viability, T/C",compound 0.1 µM,102% [middle of 25 runs]
same,"viability, T/C",compound 0.316 µM,119% and 98.5%
same,IC50,"compound alone, run of 11/29/2021",> 10000 nM
CC(C)CC(NC(=O)CNC(=O)c1cc(Cl)ccc1Cl)B1OC(=O)CC(CC(=O)O)(C(=O)O)O1 (stereo not drawn),"viability, T/C",compound 0.000316 µM,94.7% and 103%
same,"viability, T/C",compound 0.001 µM,95.6% and 99.8%
same,"viability, T/C",compound 0.00316 µM,92.1% and 95.9%
same,"viability, T/C",compound 0.01 µM,80.1% and 77.8%
same,"viability, T/C",compound 0.0316 µM,85% and 71.1%
same,"viability, T/C",compound 0.1 µM,70.6% and 57.8%
same,IC50,curve of compound,> 100 nM
CC[C@@]1(O)C(=O)OCc2c1cc1n(c2=O)Cc2cc3c(CN(C)C)c(O)ccc3nc2-1 + NC1CC1c1ccc(-c2cccc(O)c2)cc1,IC50,[1],3.05 nM
same,IC50,[2],3.4 nM
same,IC50,[3],2.31 nM
same,IC50,[4],2.27 nM
same,IC50,[5],2.32 nM
same,"viability, T/C",[26],96.1%
same,"viability, T/C",[27],83.5%
same,"viability, T/C",[6],47.5%
same,"viability, T/C",[7],32.3%
same,"viability, T/C",[8],35.6%
same,"viability, T/C",[9],18.8%
same,"viability, T/C",[28],102%
same,"viability, T/C",[29],87.3%
same,"viability, T/C",[10],48.9%
same,"viability, T/C",[11],34.3%
same,"viability, T/C",[12],33%
same,"viability, T/C",[13],19.8%
same,"viability, T/C",[30],101%
same,"viability, T/C",[31],78.3%
same,"viability, T/C",[14],38.6%
same,"viability, T/C",[15],30.5%
same,"viability, T/C",[16],34.4%
same,"viability, T/C",[17],18.4%
same,"viability, T/C",[32],88.1%
same,"viability, T/C",[33],78.8%
same,"viability, T/C",[18],37.9%
same,"viability, T/C",[19],33.1%
same,"viability, T/C",[20],33.4%
same,"viability, T/C",[21],18.7%
same,"viability, T/C",[34],93.3%
same,"viability, T/C",[35],75.6%
same,"viability, T/C",[22],40.1%
same,"viability, T/C",[23],31.8%
same,"viability, T/C",[24],37.7%
same,"viability, T/C",[25],20.7%
O=C(C=Cc1cccc(S(=O)(=O)Nc2ccccc2)c1)NO + NC1CCC(NC2CC2c2ccccc2)CC1,IC50,[1],157 nM
same,IC50,[2],172 nM
same,IC50,[3],192 nM
same,IC50,[4],167 nM
same,IC50,[5],173 nM
same,"viability, T/C","second compound 0.1 µM, first compound 0.00949 µM",98.5%
same,"viability, T/C","second compound 0.1 µM, first compound 0.03 µM",92.8%
same,"viability, T/C","second compound 0.1 µM, first compound 0.0949 µM",62.8%
same,"viability, T/C","second compound 0.1 µM, first compound 0.3 µM",31.2%
same,"viability, T/C","second compound 0.1 µM, first compound 0.949 µM",15.3%
same,"viability, T/C","second compound 0.1 µM, first compound 3 µM",4.12%
same,"viability, T/C","second compound 0.316 µM, first compound 0.00949 µM",95.7%
same,"viability, T/C","second compound 0.316 µM, first compound 0.03 µM",89.1%
same,"viability, T/C","second compound 0.316 µM, first compound 0.0949 µM",64.6%
same,"viability, T/C","second compound 0.316 µM, first compound 0.3 µM",35.5%
same,"viability, T/C","second compound 0.316 µM, first compound 0.949 µM",14.4%
same,"viability, T/C","second compound 0.316 µM, first compound 3 µM",3.93%
same,"viability, T/C","second compound 1 µM, first compound 0.00949 µM",106%
same,"viability, T/C","second compound 1 µM, first compound 0.03 µM",96%
same,"viability, T/C","second compound 1 µM, first compound 0.0949 µM",69.7%
same,"viability, T/C","second compound 1 µM, first compound 0.3 µM",37.8%
same,"viability, T/C","second compound 1 µM, first compound 0.949 µM",14.3%
same,"viability, T/C","second compound 1 µM, first compound 3 µM",6.24%
same,"viability, T/C","second compound 3.16 µM, first compound 0.00949 µM",88%
same,"viability, T/C","second compound 3.16 µM, first compound 0.03 µM",86.1%
same,"viability, T/C","second compound 3.16 µM, first compound 0.0949 µM",62.2%
same,"viability, T/C","second compound 3.16 µM, first compound 0.3 µM",35.3%
same,"viability, T/C","second compound 3.16 µM, first compound 0.949 µM",15.6%
same,"viability, T/C","second compound 3.16 µM, first compound 3 µM",3.02%
same,"viability, T/C","second compound 10 µM, first compound 0.00949 µM",89.5%
same,"viability, T/C","second compound 10 µM, first compound 0.03 µM",89.2%
same,"viability, T/C","second compound 10 µM, first compound 0.0949 µM",60%
same,"viability, T/C","second compound 10 µM, first compound 0.3 µM",37.8%
same,"viability, T/C","second compound 10 µM, first compound 0.949 µM",16.7%
same,"viability, T/C","second compound 10 µM, first compound 3 µM",2.99%
Cn1ncnc1C1c2n[nH]c(=O)c3cc(F)cc(c23)NC1c1ccc(F)cc1 (stereo not drawn) + NC1CCC(NC2CC2c2ccccc2)CC1,IC50,[1],> 100 nM
same,IC50,[2],> 100 nM
same,IC50,[3],> 100 nM
same,IC50,[4],> 100 nM
same,IC50,[5],> 100 nM
same,"viability, T/C",[26],109%
same,"viability, T/C",[27],95.3%
same,"viability, T/C",[6],104%
same,"viability, T/C",[7],104%
same,"viability, T/C",[8],99.5%
same,"viability, T/C",[9],100%
same,"viability, T/C",[28],112%
same,"viability, T/C",[29],98.7%
same,"viability, T/C",[10],98.3%
same,"viability, T/C",[11],96%
same,"viability, T/C",[12],91.9%
same,"viability, T/C",[13],104%
same,"viability, T/C",[30],109%
same,"viability, T/C",[31],96.2%
same,"viability, T/C",[14],95.7%
same,"viability, T/C",[15],99.3%
same,"viability, T/C",[16],99%
same,"viability, T/C",[17],94.3%
same,"viability, T/C",[32],97.4%
same,"viability, T/C",[33],95.9%
same,"viability, T/C",[18],87.9%
same,"viability, T/C",[19],91.3%
same,"viability, T/C",[20],80.2%
same,"viability, T/C",[21],91.5%
same,"viability, T/C",[34],86%
same,"viability, T/C",[35],107%
same,"viability, T/C",[22],81.4%
same,"viability, T/C",[23],79%
same,"viability, T/C",[24],67.6%
same,"viability, T/C",[25],81.3%
NS(=O)(=O)OCC1CC(n2ccc3c(NC4CCc5ccccc54)ncnc32)CC1O (stereo not drawn),"viability, T/C",compound 0.00949 µM,105% and 120%
same,"viability, T/C",compound 0.03 µM,102% and 114%
same,"viability, T/C",compound 0.0949 µM,82.6% and 75.8%
same,"viability, T/C",compound 0.3 µM,37.4% and 25.6%
same,"viability, T/C",compound 0.949 µM,16.1% and 7.66%
same,"viability, T/C",compound 3 µM,9.41% and 4.92%
same,IC50,curve of compound,219 nM and 172 nM
